According to patent publication US6649355B2, “Lipoxygenase proteins and nucleic acids” (priority 1998, dated 2003):

Tests used:
[1] = system: peroxisome proliferator-activated receptor, PPAR-a; conditions: cited from earlier work
[2] = molecular target: T1, 15-Lox-2 (second type of human 15S-lipoxygenase) (Homo sapiens, UniProt O15296, Q656R); experiment: Lipoxygenase metabolism of 14C substrates by the new 15S-lipoxygenase expressed in HEK 293 cells, HPLC analysis; assay type: biochemical; conditions: 2 mM added; [14C]arachidonic acid as substrate
T1 construct: Initially, five full length clones were expressed in HEK 293 cells; expressed in transfected cells; host or cells: HEK 293 cells, transient transfection (pCDNA3 or pCR3); sonicated cells incubated with substrate
T1 sequence (O15296 1-676 Q656R): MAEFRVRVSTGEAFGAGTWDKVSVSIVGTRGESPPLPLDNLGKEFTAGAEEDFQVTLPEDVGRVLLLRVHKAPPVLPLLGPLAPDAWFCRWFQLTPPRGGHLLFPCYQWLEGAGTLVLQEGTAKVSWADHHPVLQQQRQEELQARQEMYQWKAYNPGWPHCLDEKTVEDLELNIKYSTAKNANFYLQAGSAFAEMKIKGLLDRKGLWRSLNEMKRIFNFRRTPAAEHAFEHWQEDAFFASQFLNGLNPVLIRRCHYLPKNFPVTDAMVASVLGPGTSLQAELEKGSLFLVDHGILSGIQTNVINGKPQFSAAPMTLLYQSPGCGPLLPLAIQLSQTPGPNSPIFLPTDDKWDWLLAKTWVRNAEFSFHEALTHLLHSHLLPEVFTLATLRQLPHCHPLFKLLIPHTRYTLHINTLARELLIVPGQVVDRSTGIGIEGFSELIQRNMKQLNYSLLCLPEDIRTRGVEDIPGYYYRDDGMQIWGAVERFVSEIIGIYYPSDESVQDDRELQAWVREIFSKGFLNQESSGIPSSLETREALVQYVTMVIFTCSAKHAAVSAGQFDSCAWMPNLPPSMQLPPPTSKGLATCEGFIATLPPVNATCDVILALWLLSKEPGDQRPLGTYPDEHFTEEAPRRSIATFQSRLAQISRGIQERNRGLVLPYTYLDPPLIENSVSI
From the text: (§1) The PCR products corresponding to the open reading frame of the cDNA were subcloned into the pCDNA3 vector (Invitrogen), or in some experiments ligated directly into pCR3 (Invitrogen), and expressed by transient transfection in human embryonic kidney (HEK) 293 cells as described (Funk et al. (1996) J. Biol. Chem. 271, 23338-23344).

[3] = system: 8S-lipoxygenase expression in mouse skin; experiment: Effect of topical phorbol ester on 8S-lipoxygenase expression in mouse skin (activity assay, Northern, Western, immunohistochemistry); assay type: in vivo; conditions: for induction of 8S-lipoxygenase in skin: black Swiss mixed breed (outbred) pups, dorsal skin, topical
Procedure: FIG. 9A: Normal-phase HPLC analysis of 8S-lipoxygenase activity in homogenates of back skin of 7-8-day-old black Swiss pups following 24 hr treatment with vehicle (acetone) or phorbol ester ([…]).
Phorbol ester (PMA, 10 nmol) dissolved in […] of acetone was applied topically onto dorsal skin of 6-7-day-old mice. At 21-24 h after PMA-treatment, the mice were euthanized, and epidermis was prepared from the frozen dorsal skin as previously described (Hughes et al. (1991) Biochim. Biophys. Acta 1081:347-354). The frozen epidermis was dropped into guanidinium thiocyanate solution, the lysis buffer from the RNeasy RNA extraction kit (QIAGEN). After a brief sonication using an ultrasonic probe (2 sec, twice), total RNA was extracted according to the manufacturer's instructions. Approximately […] of total RNA was recovered in […] of water. Twenty microliter aliquots were used in […] reactions for first strand cDNA synthesis using an oligo-dT-adaptor primer (Brash et al. (1996) J. Biol. Chem. 271:20949-20957). One microliter aliquots of CDNA were used directly in PCR reactions.
Poly(A)+RNA was prepared from PMA- or acetone-treated frozen dorsal skin using TRI REAGENT® (Molecular Research Center, Inc.) and Oligotex™ (Qiagen) according to the manufacturers' instructions. The poly(A)^+ RNA was electrophoresed in 1% agarose/formaldehyde gel and blotted to a Hybond-H^+ nylon membrane (Amersham). The membrane was hybridized with ^32P-labeled DNA probe (complementary with a 0.6-kb EcoRV/BamHI fragment of mouse epidermal 8S-lipoxygenase) prepared using the Multiprime DNA labeling kit and Rapid-hybridization buffer (Amersham), and then washed according to the manufacturer's specifications. Blots were exposed to Fuji x-ray film at −80° C. Mouse cyclophilin cDNA was used as a house-keeping gene to access loading of RNA.
After quantitation by Bradford assay (Bio-Rad), protein was separated by SDS polyacrylamide gel electrophoresis (SDS-PAGE) and then transferred electrophoretically to Hybond ECL nitrocellulose membranes (Amersham). These were probed using a rabbit polyclonal antibody raised against the human 15-Lox-2. This antibody recognises 15-Lox-2 and the mouse 8S-lipoxygenase, but not the human reticulocyte type of 15S-lipoxygenase, as more fully described below. Donkey anti-rabbit Ig linked with horseradish peroxidase (Amersham) was the secondary antibody. Specifically bound protein was detected by chemiluminescence using the ECL Western blotting detection reagents (Amersham).
The dorsal and tail skin of six to seven (6-7)-day-old mice were treated with acetone or PMA (10 nmol for dorsal skin, 2 nmol for tail skin). After 24 h, the animals were euthanized and the dorsal and tail skin were washed with soap and then rinsed thoroughly with water. […]

[4] = molecular target: T2, mouse 8S-lipoxygenase (8-Lox) (Mus musculus, UniProt O35936); assay type: biochemical
T2 sequence (O35936 1-677): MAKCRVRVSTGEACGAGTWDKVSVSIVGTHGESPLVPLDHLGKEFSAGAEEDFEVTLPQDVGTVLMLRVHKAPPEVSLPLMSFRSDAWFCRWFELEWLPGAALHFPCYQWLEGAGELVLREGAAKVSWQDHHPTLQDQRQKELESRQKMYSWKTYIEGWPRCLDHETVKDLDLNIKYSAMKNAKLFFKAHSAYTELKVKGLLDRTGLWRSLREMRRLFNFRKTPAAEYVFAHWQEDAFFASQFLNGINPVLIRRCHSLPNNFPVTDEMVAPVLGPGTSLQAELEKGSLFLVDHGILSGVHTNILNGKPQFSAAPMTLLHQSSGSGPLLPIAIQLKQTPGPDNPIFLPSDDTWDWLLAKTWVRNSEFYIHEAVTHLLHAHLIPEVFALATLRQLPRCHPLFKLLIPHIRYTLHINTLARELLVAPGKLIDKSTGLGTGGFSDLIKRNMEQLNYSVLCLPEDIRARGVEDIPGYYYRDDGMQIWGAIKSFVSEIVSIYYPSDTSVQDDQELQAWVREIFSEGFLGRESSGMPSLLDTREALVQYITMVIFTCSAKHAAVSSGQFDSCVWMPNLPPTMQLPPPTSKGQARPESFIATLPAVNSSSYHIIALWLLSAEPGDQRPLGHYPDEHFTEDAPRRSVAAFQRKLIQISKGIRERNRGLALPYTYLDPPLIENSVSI

[5] = molecular target: T3, blood cell 15S-lipoxygenase (15-Lox-1) (Homo sapiens, UniProt P16050); experiment: Lipoxygenase metabolism of 14C substrates by the blood cell 15S-lipoxygenase analysed in the same experiments; assay type: biochemical; conditions: applicants' experiments
T3 construct: expressed in transfected cells
T3 sequence (P16050 1-662): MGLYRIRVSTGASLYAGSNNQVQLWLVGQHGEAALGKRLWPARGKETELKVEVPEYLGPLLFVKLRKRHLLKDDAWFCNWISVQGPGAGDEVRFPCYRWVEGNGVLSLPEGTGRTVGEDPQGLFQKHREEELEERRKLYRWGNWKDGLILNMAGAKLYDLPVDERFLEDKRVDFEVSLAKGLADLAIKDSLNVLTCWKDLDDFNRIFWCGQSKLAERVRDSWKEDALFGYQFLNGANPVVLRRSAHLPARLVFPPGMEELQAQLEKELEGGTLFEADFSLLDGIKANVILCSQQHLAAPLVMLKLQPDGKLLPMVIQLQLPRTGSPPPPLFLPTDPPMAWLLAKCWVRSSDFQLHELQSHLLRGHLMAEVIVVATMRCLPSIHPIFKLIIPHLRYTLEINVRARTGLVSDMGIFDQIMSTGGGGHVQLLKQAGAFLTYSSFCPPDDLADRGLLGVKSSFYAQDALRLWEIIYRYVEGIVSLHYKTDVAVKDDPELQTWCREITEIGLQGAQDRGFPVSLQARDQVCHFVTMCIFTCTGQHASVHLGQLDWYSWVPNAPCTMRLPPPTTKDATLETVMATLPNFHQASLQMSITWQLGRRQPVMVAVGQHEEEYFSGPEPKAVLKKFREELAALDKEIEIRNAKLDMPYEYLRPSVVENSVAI
From the text: as §1

Structure (SMILES): CCCCC/C=C\C/C=C\C=C\[C@@H](O)C/C=C\CCCC(=O)O [8S-HETE]
- activity at PPAR-a [1]: strong activator

Structure (SMILES): Nc1ncnc2c1ncn2[C@@H]1O[C@H](COP(=O)(O)OP(=O)(O)OP(=O)(O)O)[C@@H](O)[C@H]1O [ATP]
- effect of addition to the incubation media on enzymatic activity [2]: no significant effect

Structure (SMILES): CCCCCCCCCCCCCC(=O)O[C@@H]1[C@@H](C)[C@@]2(O)[C@@H](C=C(CO)C[C@]3(O)C(=O)C(C)=C[C@@H]23)[C@@H]2C(C)(C)[C@]12OC(C)=O [PMA, Phorbol-12-myristate-13-acetate]
- induction of 8S-lipoxygenase activity in skin ([3]; Sencar strain, 6-10-day-old pups, high constitutive activity): little extra induction
- induction of 8S-lipoxygenase in skin ([3]; 24 h): strongly induced
- induction of 8S-lipoxygenase in skin ([3]; 24 h, listed as phorbol ester): strong induction
- histological response of skin (epidermis) ([3]; black Swiss, dorsal and tail skin, topical in acetone, 24 h): marked hyperproliferative response

Structure (SMILES): CCCCC/C=C\C/C=C\C/C=C\C/C=C\CCCC(=O)O [arachidonic acid]
- added arachidonic acid converted to 8S-HPETE [4]: 30-40%
- product formed from the substrate [4]: exclusively to 8S-hydroperoxyeicosatetraenoic acid

Structure (SMILES): [Ca+2] [calcium]
- effect of addition to the incubation media on enzymatic activity [2]: no significant effect

Structure (SMILES): CCCCC/C=C\C/C=C\CCCCCCCC(=O)O [linoleic acid]
- extent of metabolism compared with arachidonic acid [5]: metabolized more extensively than arachidonic acid
- product formed from the substrate [4]: exclusively to 9S-HODE
